Assay results taken from patent publication US8580809B2, “Filamin A-binding anti-inflammatory analgesic” (Pain Therapeutics, Inc., priority 2009, dated 2013).

Biological target: T1, mu opiate receptor (MOR) (Rattus norvegicus, UniProt P33535)
T1 construct: from tissue; host or cells: rat striatal membrane preparation
Test: MOR agonist activity using [35S]GTPγS binding assay in striatal membranes
Type: biochemical
Settings: for MOR agonist activity, [35S]GTPγS binding to Gαo, FLNA-binding compound as agonist 0.1 μM: 0.1 μM compound; for MOR agonist activity, [35S]GTPγS binding to Gαo, FLNA-binding compound as agonist 0.1 μM / MOR agonist activity, [35S]GTPγS binding to Gαo, FLNA-binding compound as agonist 1 μM: striatal membranes; for MOR agonist activity, [35S]GTPγS binding to Gαo, 1 μM + BFNA: 1 μM compound + 1 μM β-funaltrexamine; for MOR agonist activity, [35S]GTPγS binding to Gαo, FLNA-binding compound as agonist 1 μM: 1 μM compound
Description: To assess the mu opiate receptor (MOR) agonist activity of positive compounds from the FLNA screening, compounds were tested in a [^35S]GTPγS binding assay using striatal membranes.
Striatal tissue was homogenized in 10 volumes of ice cold 25 mM HEPES buffer, pH 7.4, which contained 1 mM EGTA, 100 mM sucrose, 50 μg/ml leupeptin, 0.04 mM PMSF, 2 μg/ml soybean trypsin inhibitor and 0.2% 2-mercaptoethanol. The homogenates were centrifuged at 800×g for 5 minutes and the supernatants were centrifuged at 49,000×g for 20 minutes.
The resultant striatal membrane preparation (200 μg) was admixed and maintained (incubated) at 30° C. for 5 minutes in reaction buffer as above that additionally contained 1 mM MgCl2 and 0.5 nM [^35S]GTPγS (0.1 μCi/assay, PerkinElmer Life and Analytical Sciences) in a total volume of 250 μl and continued for 5 minutes in the absence or presence of 0.1-10 μM of an assayed compound of interest. The reaction was terminated by dilution with 750 μl of ice-cold reaction buffer that contained 20 mM MgCl2 and 1 mM EGTA and immediate centrifugation at 16,000×g for 5 minutes.
The resulting pellet was solubilized by sonicating for 10 seconds in 0.5 ml of immunoprecipitation buffer containing 0.5% digitonin, 0.2% sodium cholate and 0.5% NP-40. Normal rabbit serum (1 μl) was added to 1 ml of lysate and incubated at 25° C. for 30 minutes. Nonspecific immune complexes were removed by incubation with 25 μl of protein A/G-conjugated agarose beads at 25° C. for 30 minutes followed by centrifugation at 5,000×g at 4° C. for 5 minutes. The supernatant was divided and separately incubated at 25° C. for 30 minutes with antibodies raised against Gαo proteins (1:1,000 dilutions).
The immunocomplexes so formed were collected by incubation at 25° C. for 30 minutes with 40 μl of agarose-conjugated protein A/G beads and centrifugation at 5,000×g at 4° C. for 5 minutes. The pellet was washed and suspended in buffer containing 50 mM Tris-HCl, pH 8.0, and 1% NP-40. The radioactivity in the suspension was determined by liquid scintillation spectrometry. […] DAMGO (H-Tyr-D-Ala-Gly-N-MePhe-Gly-OH; 1 or 10 μM) was used as a positive control.

T1 sequence (P33535 whole entry): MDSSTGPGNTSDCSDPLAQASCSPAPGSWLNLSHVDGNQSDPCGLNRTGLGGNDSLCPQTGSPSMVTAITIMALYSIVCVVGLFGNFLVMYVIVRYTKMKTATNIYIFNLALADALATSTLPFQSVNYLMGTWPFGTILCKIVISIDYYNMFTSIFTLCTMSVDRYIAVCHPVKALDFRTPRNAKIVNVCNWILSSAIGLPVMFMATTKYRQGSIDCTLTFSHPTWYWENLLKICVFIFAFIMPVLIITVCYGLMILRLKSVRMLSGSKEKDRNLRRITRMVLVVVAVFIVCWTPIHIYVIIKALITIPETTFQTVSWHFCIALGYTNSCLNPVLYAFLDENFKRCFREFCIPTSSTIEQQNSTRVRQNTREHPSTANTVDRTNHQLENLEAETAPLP

SMILES | MOR agonist activity, [35S]GTPγS binding to Gαo, FLNA-binding compound as agonist 0.1 μM | MOR agonist activity, [35S]GTPγS binding to Gαo, 1 μM + BFNA | MOR agonist activity, [35S]GTPγS binding to Gαo, FLNA-binding compound as agonist 1 μM
COC(=O)c1ccc(S(=O)(=O)N2CCC3(CC2)OCCN3S(=O)(=O)c2ccc(C(=O)OC)cc2)cc1 [Compound C0028] | 93.9% | 78.4% | 132.4%
CC(=O)c1ccc(S(=O)(=O)N2CCC3(CC2)OC(CN(C)C)CN3S(=O)(=O)c2ccc(C(C)=O)cc2)cc1 (stereo not drawn) [Compound C0065] | 198.3% | 47.7% | 279.5%
COc1cc(S(=O)(=O)N2CCC3(CC2)OCCN3S(=O)(=O)c2cc(OC)c(OC)c(OC)c2)cc(OC)c1OC [Compound C0062] | 127.8% | 59.8% | 310.5%
CC(=O)c1ccc(S(=O)(=O)N2CCC3(CC2)NC(=O)CN3S(=O)(=O)c2ccc(C(C)=O)cc2)cc1 [Compound C0064] | 213.8% | 38.1% | 349.6%
O=S(=O)(c1cccc(OC(F)(F)F)c1)N1CCC2(CC1)OCCN2S(=O)(=O)c1cccc(OC(F)(F)F)c1 [Compound C0005] | 180.4% | 166.4% | 227.2%
Cc1ccccc1S(=O)(=O)N1CCC2(CC1)OCCN2S(=O)(=O)c1ccccc1C [Compound C0015] | 138.7% | 126.8% | 204.7%
COc1cccc(S(=O)(=O)N2CCC3(CC2)OCCN3S(=O)(=O)c2cccc(OC)c2)c1 [Compound C0002] | 88.4% | 3.9% | 93.8%
COc1ccc(NC(=O)N2CCC3(CC2)OCCN3C(=O)Nc2ccc(OC)cc2)cc1 [Compound C0151M] | 346.8% | 212.8% | 397.6%
O=S(=O)(c1ccc(F)c(F)c1)N1CCC2(CC1)OCCN2S(=O)(=O)c1ccc(F)c(F)c1 [Compound C0072] | 172.7% | 67.1% | 259.1%
COc1ccccc1S(=O)(=O)N1CCC2(CC1)OCCN2S(=O)(=O)c1ccccc1OC [Compound C0003] | 162.3% | 107.7% | 215.9%
COc1ccc(S(=O)(=O)N2CCC3(CC2)OCCN3S(=O)(=O)c2ccc(OC)cc2)cc1 [Compound 7866] | 152.3% | 62.4% | 308.2%
C[C@@H](NC(=O)[C@@H](N)Cc1ccc(O)cc1)C(=O)NCC(=O)N(C)[C@@H](Cc1ccccc1)C(=O)NCCO [DAMGO, reference compound] | 168.5% | 53.2% | 266.1%
Cc1ccc(S(=O)(=O)N2CCC3(CC2)OCCN3S(=O)(=O)c2ccc(C)cc2)cc1 [Compound C0001] | 129.3% | 33.9% | 184.3%
NS(=O)(=O)c1ccc(S(=O)(=O)N2CCC3(CC2)OCCN3S(=O)(=O)c2ccc(S(N)(=O)=O)cc2)cc1 [Compound C0034] | 103.6% | 80.1% | 167.9%
O=S(=O)(c1cccc2cccnc12)N1CCC2(CC1)OCCN2S(=O)(=O)c1cccc2cccnc12 [Compound C0143M] | 81.0% | 86.5% | 193.3%
COc1ccc(S(=O)(=O)N2CCCC3(C2)OCCN3S(=O)(=O)c2ccc(OC)cc2)cc1 (stereo not drawn) [Compound C0145M] | 193.0% | 87.0% | 289.2%
O=S(=O)(c1ccc(Cl)cc1)N1CCC2(CC1)OCCN2S(=O)(=O)c1ccc(Cl)cc1 [Compound C0067] | 142.7% | 33.5% | 179.0%
COc1ccc(NC(=O)N2CCC3(CC2)OCCN3S(=O)(=O)c2ccc(OC)cc2)cc1 [Compound C0041] | 186.1% | 95.5% | 244.4%
CCCCc1ccc(S(=O)(=O)N2CCC3(CC2)OCCN3S(=O)(=O)c2ccc(CCCC)cc2)cc1 [Compound C0030] | 150.3% | 95.0% | 226.8%
O=S(=O)(c1ccc2ccccc2c1)N1CCC2(CC1)OCCN2S(=O)(=O)c1ccc2ccccc2c1 [Compound C0140M] | 126.1% | 83.0% | 215.4%
CC(=O)c1ccc(C(=O)N2CCOC23CCN(S(=O)(=O)c2ccc(C(C)=O)cc2)CC3)cc1 [Compound C0053] | 104.0% | 93.1% | 157.2%
O=S(=O)(c1ccc(OC(F)(F)F)cc1)N1CCC2(CC1)OCCN2S(=O)(=O)c1ccc(OC(F)(F)F)cc1 [Compound C0006] | 121.5% | 4.6% | 204.0%
O=S(=O)(c1csc2ccccc12)N1CCC2(CC1)OCCN2S(=O)(=O)c1csc2ccccc12 [Compound C0150M] | 167.1% | 158.1% | 423.1%
COc1ccc(C(=O)N2CCC3(CC2)OCCN3C(=O)c2ccc(OC)cc2)cc1 [Compound C0017] | 153.8% | 94.1% | 284.5%
O=S(=O)(c1ccc(Oc2ccccc2)cc1)N1CCC2(CC1)OCCN2S(=O)(=O)c1ccc(Oc2ccccc2)cc1 [Compound C0149M] | 209.8% | 93.4% | 406.7%
CC(O)c1ccc(S(=O)(=O)N2CCC3(CC2)OCCN3S(=O)(=O)c2ccc(C(C)O)cc2)cc1 (stereo not drawn) [Compound C0051] | 94.4% | 55.9% | 170.4%
O=S(=O)(c1ccc(Br)cc1Br)N1CCC2(CC1)OCCN2S(=O)(=O)c1ccc(Br)cc1Br [Compound C0070] | 165.6% | 114.2% | 210.8%
COc1ccc(C(=O)N2CCC3(CC2)OCCN3S(=O)(=O)c2ccc(OC)cc2)cc1 [Compound C0018] | 195.5% | 106.5% | 247.7%
